Measured values taken from patent publication US20150233925A1, “Assays and Cell-Based Tests Using a Receptor Na/K-ATPase/Src Complex and Uses Thereof” (The University of Toledo, priority 2012, published 2015).
“Also recorded” adds a separate entry of the source.

How the values were obtained:
[1] = target: T1, Na/K-ATPase/Src receptor complex (Sus scrofa, UniProt P05024); assay: Reconstituted Na/K-ATPase/Src receptor complex, Src pY418 by Western blot (kinase activity assay of Src); assay type: biochemical, pig; conditions: ouabain 1 μM, 100 μM vanade to inactivate ATPase activity
T1 construct: The α1 Na/K-ATPase was purified from pig kidney; tissue Upstate Biotechnology (Src only); host or cells: pig kidney (Na/K-ATPase)
Protocol: (§1) In one example, the FRET-based in vitro high throughput assay utilizes the in vitro reconstitution of receptor Na/K-ATPase and Src, and a peptide Src substrate-based FRET assay. […] To reconstitute the receptor α1 Na/K-ATPase/Src complex, purified pig kidney Na/K-ATPase was mixed with purified recombinant Src. This receptor complex has an inhibited Src activity. The binding of agonists to the receptor complex releases the inhibited Src and result in an increase in Src activity, which is measured by a peptide-based FRET analysis (FIG. 2A, FIG. 2B). To screen the agonist of receptor Na/K-ATPase/Src complex, the reconstituted receptor is exposed to compounds, and then measured for Src activation using the peptide-based FRET assay.
Phosphorylation of Src pY 418, as an indicator of Src activation, was measured by Western blot. Ouabain was used at 1 μM and the assay was done in the presence of 100 μM vanade to inactivate ATPase activity. Values are mean±S.E. of at least three independent experiments. * p<0.05 compared with control. ** p<0.01 compared with control.
(§2) To assay for receptor antagonist, the reconstituted receptor was exposed to compounds in the presence and absence of an agonist (ouabain) and then assessed whether the compounds could antagonize ouabain-induced activation of Src. To verify that they are specific antagonists of receptor Na/K-ATPase/Src complex, their effects on ouabain-, EGF- and dopamine-induced signal transduction was measured in LLC-PK1 and PY-17 cells.
To determine whether the compound affect the Na/K-ATPase/Src receptor activity, the compounds was incubated with the purified Src (4.5 U) and 1 μg Na/K-ATPase for 15 min at 37° C. Afterward, 2 mM ATP/Mg^2+ was added. The reaction continued for 15 min at 37° C. and was stopped by addition of SDS sample buffer. Afterward, the Src pY418 was measured by anti-pY418 antibody to indicate Src activation.

[2] = system: ERKs in LLC-PK1 cells; assay: Immunostaining assay for active ERK in LLC-PK1 cells; assay type: cell-based, pig; conditions: pretreated cells exposed to 1 nM ouabain for 60 min
Protocol: as §2
LLC-PK1 cells were pretreated with different concentrations of MB5 for 15 min, exposed to 1 nM ouabain for 60 min, and assayed for active ERKs. A representative set of images is shown. LLC-PK1 cells were pretreated with different concentrations of MB5 for 15 min, exposed to stimuli for either 10 or 3 min, and assayed for active ERKs. A representative set of images is shown.
The data presented in FIGS. 6C-6E show blocking ouabain-induced ERK activation by other antagonists of receptor Na/K-ATPase/Src complex. […] Both control and Tanshinone I-pretreated cells were exposed to ouabain (1 nM) for 1 hour, and processed for immuno-staining of active ERK as in FIG. 6A. A representative set of images are presented from three separate experiments.
LLC-PK1 cells grown on coverslip were serum-starved and treated with MB5 or stimuli for indicated time. […] The signals were detected by a Leica (Wetzlar, Germany) confocal microscope. […]

[3] = target: T1, Na/K-ATPase/Src receptor complex; assay: FRET based high throughput screen for agonists and antagonists; assay type: biochemical, pig; conditions: screen with ouabain plus compounds, followed by cell-based analyses
Excerpt: Referring now to FIGS. 2A and 2B, there are shown schematic illustrations of a FRET based high throughput assay for agonist and antagonist. […] A pathway-based approach is useful to screen for agonists of Na/K-ATPase/Src receptor targets. Agonist can interact with Na/K-ATPase resulting Src phosphorylation. This active Src transfers the γ-phosphate of ATP to a single tyrosine residue in the synthetic peptide substrate. Then, a site specific protease recognizes and cleaves non-phosphorylated peptides. […] Cleavage disrupts FRET on the peptide, whereas uncleaved, phosphorylated peptides maintain FRET.
This assay is similar as the agonist screening. For example, in the presence of ouabain, antagonist can reduce ouabain induced peptide substrate phosphorylation.
as §1
The chemical library used for screening in the present study contained 100 structurally diverse, drug-like, naturally occurring organic compounds or their semisynthetic derivatives. Stock compounds were prepared at 10 mM in DMSO. The specific activities of Na/K-ATPase of various kidney preparations were in the range of 900-1,200 μmol/mg/h. The high throughput screen was conducted in a Corning 384-well low-volume assay plates at room temperature.
The first step was Kinase Reaction with the final reaction volume of 10 μl. The purified Src (4.5 U) was incubated with 2 μg of the purified Na/K-ATPase in phosphate-buffered saline (PBS) for 5 min. Afterward, the Na/K-ATPase/Src complex was exposed to compounds to screen for agonist or ouabain 10 μM plus compounds to screen antagonists for 10 min. Then, the Src kinase substrate Tyr 2 peptide or phosphor-peptide (control) was added. The reaction was initiated by addition of 2 mM ATP/Mg^2+, continued for 60 min.
The second step was Development Reaction. Each well was added 5 μl Development Solution, then mix the plate and incubate another 60 min. The assay was stopped by adding 5 μl stop reagent and then fluorescent signals were measured.

[4] = system: DU145 tumor xenograft; assay: DU145 xenograft tumors in NOD/SCID mice; assay type: in vivo; conditions: 20 mg/kg i.p. every day for 3 weeks
Protocol: FIGS. 8A-8C show the MB5 effect on the growth of DU145 tumor xenografts in NOD/SCID mice Viable DU145 cells (5×10^6) were injected to the flank of NOD/SCID mice. After tumor reached 100 mm^3, mice were injected via i.p. with DMSO or MB5 at a dose of 20 mg/Kg. Values are mean±S.E. ** p<0.01 compared with each control.
Animal protocols were approved by the Institutional Animal Care and Use Committee at the University of Toledo Health Science Campus. Tumor xenografts were established by subcutaneous injection of 5×10^6 DU145 cells into two flanks of 6-week-old female NOD/SCID mice (Charles River). When the tumors reached an average volume of 100 mm^3, mice were injected intraperitoneally with DMSO or MB5 (at doses of 20 mg/kg body weight) every day for 3 weeks.

[5] = system: ouabain-induced signal transduction in cultured cells; assay: Ouabain-induced signal transduction in cultured cells; assay type: cell-based
Protocol: as §2

[6] = system: ERK in LLC-PK1 cells; assay: Western blot of activated-ERK in LLC-PK1 cells; assay type: cell-based, pig; conditions: pretreated 30 min, ouabain 1 nM for 1 h
Protocol: LLC-PK1 cells were serum-starved overnight, washed and pretreated with Ferulic acid (A) for 30 min. Both control and compounds-pretreated cells were exposed to ouabain (1 nM) for 1 h. Cell lysates were collected, separated by SDS-PAGE and probed for activated-ERK and total-ERK. A representative western blot is shown. The quantitative data from three to four separate experiments were presented. (***, p<0.001 vs control; #, p<0.05 vs Oua).
The experiments were done as in FIG. 6D. The quantitative data from four separate experiments were presented. (***, p<0.001 vs control; ## #, p<0.001 vs Oua).
(§3) Cells were washed with PBS and solubilized in modified ice-cold radioimmune precipitation assay buffer, and subjected to Western blot analysis. Protein signals were detected using an ECL kit and quantified using ImageJ.

[7] = system: Src in LLC-PK1 cells; assay: Cell-based Src activation assay, LLC-PK1 cells; set-up: species or system pig; conditions: 20 μM OA
Protocol: (§4) The second assay uses another pair of cell lines, LL-A416P-4 and LL-A420P-20. These cells were rat α1 A416P and A420P mutant-rescued PY-17 cells.
The pig kidney epithelia cells (LLC-PK1 cells) were obtained from ATCC and maintained in Dulbecco's modified Eagle's medium (DMEM) in the presence of 10% FBS, 100 units/ml penicillin, and 100 μg/ml streptomycin in a 5% CO2 humidified incubator. To eliminate the confounding effect of growth factors in the serum, cells were serum starved over night before experiments.
(§5) Referring now to FIG. 3A, cells were treated with indicated concentration of ouabain for 5 min, and total cell lysates were analyzed for pY418 and total Src. […] Values are mean±S.E. of at least three independent experiments. * p<0.05 compared with each control.
as §3

[8] = system: Src in LY-F286A-19 cells (F286A mutant Na/K-ATPase); assay: Cell-based Src activation assay, LY-F286A-19 cells; conditions: ouabain 10 min
Protocol: (§6) The third assay uses other two cell lines (LY-I279A-3, LY-F286A-19), where the expressed I279A or F286A mutant Na/K-ATPase was defective in conformational transition (I279A and F286A mutants were defective in E1 to E2 and E2 to E1 conformational transition, respectively). […] Cell (LY-I279A-3 and LY-F286A-19) based Assay for agonist (ouabain): Cells were treated with indicated concentration of ouabain for 10 min, and total cell lysates were analyzed for pY418 and total Src. […] Values are mean±S.E. of at least three independent experiments. * p<0.05 compared with each control.
as §3

[9] = system: Src in LL-A416P-4 cells (rat α1 A416P mutant-rescued PY-17 cells); assay: Cell-based Src activation assay, LL-A416P-4 cells; conditions: ouabain 10 min
Protocol: as §4
as §5, with “Cell (LL-A416P-4 and LL-A420P-20) based assay for agonist (ouabain): Cells were” for “Referring now to FIG. 3A, cells were”, “for 10” for “for 5”
as §3

[10] = system: Src in PY-17 cells (LLC-PK1 derived α1 knockdown); assay: Cell-based Src activation assay, α1 knockdown PY-17 cells; set-up: species or system pig; conditions: Na/K-ATPase knockdown
Protocol: (§7) To confirm that these agonists activate Src through the Na/K-ATPase, three complementary cell-based assays were established. One assay uses a LLC-PK1 derived al knockdown PY-17 cell, a control cell P11 (LLC-PK1transfected with empty vector), and another control cell AAC-19 (rat al-rescued PY-17 cells).
as §4, §5, §3

[11] = system: Src in AAC-19 cells (rat α1-rescued PY-17 cells); assay: Cell-based Src activation assay, control cell AAC-19
Protocol: as §7, §5, §3

[12] = system: Src in P11 cells (LLC-PK1 transfected with empty vector); assay: Cell-based Src activation assay, control cell P11; set-up: species or system pig
Protocol: as §7, §5, §3

[13] = system: Src in LY-I279A-3 cells (I279A mutant Na/K-ATPase); assay: Cell-based Src activation assay, LY-I279A-3 cells; conditions: ouabain 10 min
Protocol: as §6, §3

For `O=c1c2cccc(O)c2oc2c(O)c(O)ccc12` [MB5, 3,4,5-trihydroxyxanthone], the “effect on ouabain-induced Src activation (Src pY418)” value (shortened to “effect … (Src pY418)”) [1] was “antagonizing effects”, the “effect on ouabain-induced activation of ERKs” value [2] was “blocked” and the “identification as antagonist of receptor Na/K-ATPase/Src complex (ouabain antagonist)” value [3] was “positively identified as ouabain antagonists”. For the same compound, the “identification as antagonist of receptor Na/K-ATPase/Src complex (ouabain antagonist)” value ([3]; listed as MB-5) was “receptor antagonists”, the “growth of DU145 tumor xenograft” value [4] was “inhibited the growth” and the “effect on ouabain-induced signal transduction” value [5] was “antagonize”.

With `O=c1c2ccc(O)c(O)c2oc2c(O)c(O)ccc12` [MB7, 3,4,5,6-tetrahydroxyxanthone] the “effect on ouabain-induced signal transduction” value [5] was “antagonize”.

In the case of `CC(C)(O)[C@@H]1CC[C@](C)([C@H]2[C@@H](O)C[C@@]3(C)[C@@H]4C[C@H](O[C@@H]5O[C@H](CO)[C@@H](O)[C@H](O)[C@H]5O)[C@H]5C(C)(C)[C@@H](O[C@@H]6OC[C@@H](O)[C@H](O)[C@H]6O)CC[C@@]56C[C@@]46CC[C@]23C)O1` [astragaloside IV], the “identification as antagonist of receptor Na/K-ATPase/Src complex (ouabain antagonist)” value [3] is reported as “identified; also recorded: receptor antagonists” and the “effect on ouabain-induced ERK activation” value [6] is reported as “inhibitory effects”.

In the case of `COc1cc(/C=C/C(=O)CC(=O)/C=C/c2ccc(O)c(OC)c2)ccc1O` [curcumin], the “identification as antagonist of receptor Na/K-ATPase/Src complex (ouabain antagonist)” value [3] is reported as “receptor antagonists”.

For `O=C(O)[C@H](O)Cc1ccc(O)c(O)c1` [danshensu], the “identification as antagonist of receptor Na/K-ATPase/Src complex (ouabain antagonist)” value [3] was “identified” and the “identification as antagonist of receptor Na/K-ATPase/Src complex (ouabain antagonist)” value ([3]; listed as Tanshensu) was “receptor antagonists”.

In the case of `COc1cc(/C=C/C(=O)O)ccc1O` [ferulic acid], the “identification as antagonist of receptor Na/K-ATPase/Src complex (ouabain antagonist)” value [3] is reported as “identified; also recorded: receptor antagonists” and the “effect on ouabain-induced ERK activation” value [6] is reported as “inhibitory effects”.

`CCCCCCCC/C=C\CCCCCCCC(=O)O` [oleic acid] was tested, and the “Src activation (pY418 / total Src)” value [7] was “activated Src”.

`C[C@@H]1O[C@@H](O[C@H]2C[C@@H](O)[C@]3(CO)[C@H]4[C@H](O)C[C@]5(C)[C@@H](C6=CC(=O)OC6)CC[C@]5(O)[C@@H]4CC[C@]3(O)C2)[C@H](O)[C@H](O)[C@H]1O` [ouabain] was tested, and the “Src activation (pY418 / total Src)” value [8] was “could no longer activate Src”, the “Src activation (pY418 / total Src)” value [9] was “activated Src” and the “Src activation (pY418 / total Src)” value [10] was “abolished their effects”. The “Src activation (pY418 / total Src)” value [11] was “activate Src”, the “Src activation (pY418 / total Src)” value [12] was “activate Src” and the “Src activation (pY418 / total Src)” value [13] was “could no longer activate Src”.

With `Cc1coc2c1C(=O)C(=O)c1c-2ccc2c1CCCC2(C)C` [tanshinone IIA] the “effect … (Src pY418)” value [1] was “antagonizing effects” and the “identification as antagonist of receptor Na/K-ATPase/Src complex (ouabain antagonist)” value [3] was “identified”.

In the case of `Cc1coc2c1C(=O)C(=O)c1c-2ccc2c(C)cccc12` [tanshinone I], the “effect … (Src pY418)” value [1] is reported as “antagonizing effects”, the “effect on ouabain-induced activation of ERKs” value [2] is reported as “inhibition” and the “identification as antagonist of receptor Na/K-ATPase/Src complex (ouabain antagonist)” value [3] is reported as “identified”. For the same compound, the “effect on ouabain-induced ERK activation” value [6] was “inhibitory effects”.
